These results are taken from patent US20150232420A1, “TRANSGLUTAMINASE TG2 INHIBITORS, PHARMACEUTICAL COMPOSITIONS, AND METHODS OF USE THEREOF” (priority 2012, published 2015).

Data set [1] can be described thus: Liver microsomal stability (human). Conditions: for metabolic stability in liver microsomal stability testing: human, in words; for microsomal CLint at 1 μM: pooled liver microsomes, pH 7.4, human liver microsomes, 0.25 mg protein/mL, NADPH, read-out: hLM Clint. It counts as in vitro ADME. The method, then: (§1) Incubations of test compound (1 μM initial concentration, n=2) were carried out with pooled hepatic liver microsomes (0.25 mg protein/mL in 0.1 M phosphate buffer pH7.4). NADPH (1 mM) was added to initiate the reactions. The incubations were performed at 37° C. Samples (100 μL) were taken from the incubation at 0, 5, 10, 20 and 40 min and added to 100 μL of acetonitrile containing carbamazepine as analytical internal standard, to terminate the reaction. Samples were centrifuged and the supernatant fractions analyzed using LC-MS/MS.
(§2) For all incubations, the instrument response (i.e. chromatographic peak area or peak height, normalized by internal standard), at each time-point were referenced to the zero time-point samples (as 100%) in order to determine the percentage of compound remaining at that time-point. Plots of the natural logarithm (Ln) of the percent of parent remaining for each compound, versus time, were used to determine the half-life in the incubation of interest.
(§3) Half-life values (t1/2) were calculated from the relationship: t1/2 (min)=−0.693/λ where λ was the slope of the Ln concentration versus time curve.
For incubations in hepatic liver microsomes, the in vitro intrinsic clearance, Clint (μL/min/mg microsomal protein), was calculated using the following formula:
Clint=(0.693/t1/2 microsomal)*(ml incubation/mg microsomal protein)*(mg microsomal protein/g liver)*(g liver/kg body weight)
(In general: Liver microsomes are vesicles of endoplasmic reticulum, rich in cytochrome P450 enzymes.)

Data set [2] is described as follows: kinetic solubility assay. Conditions: for solubility in a kinetic solubility assay: in words; for Aq. Sol.: kinetic solubility. It counts as physicochemical.
For data set [3], the target named is T1, P-glycoprotein (P-gp) (Homo sapiens, UniProt P08183).
T1 construct: host or cells: MDCKII (MDR1-MDCKII)
Nature of the data set: Effective efflux ratio in MDCK-MDR1. Conditions: for active efflux via P-gp: MDCK-MDR1 transfected cell line, in words; for MDCK-MDR1 EER: effective efflux ratio, 10 μM. It counts as in vitro ADME. Here is the method:
(§4) The MDR1-MDCKII and wild type MDCKII cell lines were cultured in accordance with the guidelines provided by Solvo Biotechnology. Both wild-type MDCK and MDR1-MDCK cells were seeded at a cell density of 2.3×10^5 cells/well into 24-well Transwell plates and cultured for three days to form monolayers. Test compound was loaded into the donor compartments of the Transwell plate (24-well) bearing MDR1-MDCK or wild type MDCK monolayers. Test compound was added to either the apical or basolateral chambers of the Transwell plate assembly at a concentration of 10 μM in Hanks' Balanced Salt Solution containing 25 mM HEPES (pH 7.4). Lucifer Yellow was added to the apical buffer in all wells and its permeation monitored to assess integrity of the cell layer. As Lucifer Yellow (LY) cannot freely permeate lipophilic barriers, a high degree of LY transport indicates poor integrity of the cell layer and wells with LY permeability >100 nm/s are rejected.
P-glycoprotein (P-gp) is one of the main efflux transporters in brain; the potential for compound 1 and compound 2 to be effluxed by P-gp was assessed in an MDCK-MDR1 transfected cell line.

Data set [4] is described as follows: Plasma stability (mouse). Conditions: pooled plasma. Format: in vitro ADME. The method, then: (§5) Incubations of test compound (1 μM initial concentration, n=2) were carried out with pooled plasma or BSA (45 mg/mL in 0.1 M phosphate buffered saline pH 7.4). The incubations were performed at 37° C. Samples (50 μL) were obtained from the incubation at 0, 10, 30, 120, 240, 360 and 1440 min, and added to 150 μL of acetonitrile containing carbamazepine as analytical internal standard to terminate the reaction. Samples were centrifuged and the supernatant fractions analyzed using LC-MS/MS.
as §2, §3

Data set [5] is described as follows: Plasma stability (human). The following applies: pooled plasma. It counts as in vitro ADME. Here is the method: as §5, §2, §3
For data set [6], the target named is T2, human TG2 (Homo sapiens, UniProt P21980).
T2 sequence (P21980 1-687): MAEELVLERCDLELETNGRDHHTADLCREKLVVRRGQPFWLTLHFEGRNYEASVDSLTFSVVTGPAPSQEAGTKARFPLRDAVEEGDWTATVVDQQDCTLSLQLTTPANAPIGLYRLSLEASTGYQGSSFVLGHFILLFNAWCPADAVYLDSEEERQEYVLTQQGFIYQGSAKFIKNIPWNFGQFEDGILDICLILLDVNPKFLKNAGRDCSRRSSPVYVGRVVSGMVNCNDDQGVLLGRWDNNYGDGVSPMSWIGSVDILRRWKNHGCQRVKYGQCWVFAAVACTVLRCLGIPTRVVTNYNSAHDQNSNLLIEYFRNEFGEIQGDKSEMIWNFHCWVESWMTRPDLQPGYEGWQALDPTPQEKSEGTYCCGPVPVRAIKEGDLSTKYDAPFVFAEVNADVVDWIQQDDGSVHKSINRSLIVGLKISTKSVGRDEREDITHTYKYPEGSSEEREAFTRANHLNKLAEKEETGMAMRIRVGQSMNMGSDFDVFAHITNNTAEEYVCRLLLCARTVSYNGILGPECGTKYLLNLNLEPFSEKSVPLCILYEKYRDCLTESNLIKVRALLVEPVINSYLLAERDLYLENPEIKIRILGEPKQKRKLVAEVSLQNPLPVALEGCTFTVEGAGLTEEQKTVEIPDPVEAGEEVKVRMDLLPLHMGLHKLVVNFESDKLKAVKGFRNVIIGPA
Description: fluorescent screening assay for human TG2. It counts as biochemical. Here is the method:
The fluorescent screening assay for human TG2 was performed as described herein: Assay conditions were 20 nM TG2, 8 μM N,N-dimethylated Casein (NMC) and 16 μM K×D (used for all transglutaminase assays) in 25 mM Hepes, pH 7.4, 250 mM NaCl, 2 mM MgCl2, 0.5 mM CaCl2, 0.2 mM DTT, 0.05% Pluronic F-127 at 37° C. A time point was taken with a microplate reader (Safire or Ultra, Tecan; ex: 350 nm, em: 535 nm) every 3 minutes for up to 2 hours and the initial linear reaction progress was used to determine the reaction velocity as a measure for enzyme activity. Assay conditions were identical for human TG6 and similar for human TG1 and mouse TG2 apart from enzyme concentration (mTG2 at 5 nM; TG1 at 10 nM) and CaCl2 concentration (0.2 mM for mTG2; 0.05 mM for TG1). Factor XIIIa was activated using 0.1 μg/μl thrombin (Sigma) in 35 mM Tris pH 8.0 for 20 min at 30° C. and the transamidation reaction was performed with 20 nM Factor XIIIa in 50 mM Tris pH 8.0, 1.25 mM CaCl2, 0.05% Pluronic, 0.2 mM DTT. TG3 was activated with 0.02 μg/μl thrombin under the same conditions as Factor XIIIa and assay conditions were 10 nM TG3 in 50 mM Hepes, pH 8, 20 mM CaCl2, 0.2 mM DTT, 0.05% Pluronic F-127.

Data set [7] can be described thus: Permeability in wild type MDCK monolayers. Format: in vitro ADME. Conditions: dog; wild type MDCK, apical to basolateral, 10 μM, pH 7.4; read-out: MDCK-WT Papp A-B. The method, then:
as §4

The test system of data set [8] is wild type MDCKII cell line. Nature of the data set: Permeability in wild type MDCK monolayers. The following applies: MDCK study; in words. Format: in vitro ADME. Here is the method: as §4
The nature of data set [9]: Liver microsomal stability (mouse). It counts as in vitro ADME. The method, then: as §1, §2, §3
For incubations in hepatic liver microsomes, the in vitro intrinsic clearance, Clint (μL/min/mg microsomal protein), was calculated using the following formula: […]

[10] abbreviates: mouse plasma, 1 μM, 37° C., read-out: Mouse Plasma T1/2.
[11] abbreviates: read-out: half-life in mouse plasma.
Setting [12] is: human plasma, 1 μM, 37° C., read-out: Human Plasma T1/2.
[13] abbreviates: read-out: half-life in human plasma.
[14] abbreviates: Table 7, 20 nM TG2, 37° C., read-out: IC50.

Structures are written as SMILES. pIC50: −log10 of the molar value. Where two headings read alike, the source gives them in different places.

T1 sequence (P08183 whole entry): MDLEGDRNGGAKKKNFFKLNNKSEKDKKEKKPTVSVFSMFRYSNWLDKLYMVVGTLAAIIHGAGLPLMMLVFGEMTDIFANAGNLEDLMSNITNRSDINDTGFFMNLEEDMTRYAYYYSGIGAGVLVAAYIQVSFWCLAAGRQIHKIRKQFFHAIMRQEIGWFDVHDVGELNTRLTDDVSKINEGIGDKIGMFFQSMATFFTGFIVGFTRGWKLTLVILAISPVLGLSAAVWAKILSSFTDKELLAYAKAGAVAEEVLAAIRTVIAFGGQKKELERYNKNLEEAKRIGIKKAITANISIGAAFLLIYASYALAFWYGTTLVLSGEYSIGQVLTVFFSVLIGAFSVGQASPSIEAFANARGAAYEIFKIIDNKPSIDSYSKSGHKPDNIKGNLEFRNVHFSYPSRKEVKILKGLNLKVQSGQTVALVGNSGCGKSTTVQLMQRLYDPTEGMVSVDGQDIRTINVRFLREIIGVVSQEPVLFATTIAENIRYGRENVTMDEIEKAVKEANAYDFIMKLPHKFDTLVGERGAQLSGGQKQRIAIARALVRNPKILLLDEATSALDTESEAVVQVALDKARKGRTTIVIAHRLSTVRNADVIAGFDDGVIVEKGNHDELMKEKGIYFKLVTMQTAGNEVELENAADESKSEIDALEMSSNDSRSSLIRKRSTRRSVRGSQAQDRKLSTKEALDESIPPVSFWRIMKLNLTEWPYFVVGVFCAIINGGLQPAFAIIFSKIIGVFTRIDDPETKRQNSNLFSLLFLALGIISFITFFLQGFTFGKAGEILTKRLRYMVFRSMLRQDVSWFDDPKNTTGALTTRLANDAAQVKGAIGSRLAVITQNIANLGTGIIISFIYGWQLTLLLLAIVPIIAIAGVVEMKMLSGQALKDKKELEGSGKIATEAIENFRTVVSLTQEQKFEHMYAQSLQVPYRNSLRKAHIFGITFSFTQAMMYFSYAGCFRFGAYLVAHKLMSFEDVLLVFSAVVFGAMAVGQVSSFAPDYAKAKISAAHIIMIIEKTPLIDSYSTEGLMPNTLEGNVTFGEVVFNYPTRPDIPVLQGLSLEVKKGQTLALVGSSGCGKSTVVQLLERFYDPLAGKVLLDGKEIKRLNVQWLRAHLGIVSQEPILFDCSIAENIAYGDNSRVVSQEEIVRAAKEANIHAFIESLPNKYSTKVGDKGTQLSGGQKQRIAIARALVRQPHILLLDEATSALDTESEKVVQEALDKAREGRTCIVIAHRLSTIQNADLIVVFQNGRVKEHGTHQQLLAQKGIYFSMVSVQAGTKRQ

The pIC50 is the negative decadic logarithm of the IC50, by convention in mol/L. By Papp A→B is commonly meant how fast a substance crosses the layer from the apical side. Consider `C=CC(=O)NCCCC[C@H](NC(=O)OCc1ccccc1)C(=O)N1CCN(c2ccccc2Cl)CC1` [compound 1, benzyl N-[(2S)-1-[4-(2-chlorophenyl)piperazin-1-yl]-1-oxo-6-(prop-2-enamido)hexan-2-yl]carbamate], for which, in data set [1], the “metabolic stability in liver microsomal stability testing” value is listed as “poor”. Further, the microsomal CLint at 1 μM in [1] was above 1390 µL/min/mg. Moreover, in [2], the “solubility in a kinetic solubility assay” value was “good solubility”. Moreover, the “Aq. Sol.” value in [2] came out at 0.87 mg/mL. For the same compound, the “active efflux via P-gp” value in data set [3] is reported as “high active efflux”. Besides, the “MDCK-MDR1 EER” value in data set [3] turned out to be 118. The half-life at 1 μM in data set [4] (setting [10]), in [4] (setting [11]), in data set [5] (setting [12]) and in [5] (setting [13]) was above 24 h each time. In addition, the pIC50 in data set [6] (setting [14]) is above 7.00; in data set [6] (Table 8, read-out: TG2 IC50) it was 7.85. Also, the Papp A→B at 10 μM in data set [7] is 14.2 ×10⁻⁶ cm/s. Also, the permeability result in data set [8] is on record as “good permeability”.
For the compound `C=CC(=O)NCCCC[C@H](NC(=O)Cc1ccccc1)C(=O)N1CCN(c2cccc(C)n2)CC1` [compound 2, N-[(5S)-6-[4-(6-methylpyridin-2-yl)piperazin-1-yl]-6-oxo-5-(2-phenylacetamido)hexyl]prop-2-enamide], the “metabolic stability in liver microsomal stability testing” value is reported as “poor” in data set [1] and “poor” in data set [9] (mouse, in words). Besides, the microsomal CLint at 1 μM in [1] is above 1390 µL/min/mg; in data set [9] (pooled liver microsomes, pH 7.4, mouse liver microsomes, 1 μM, 0.25 mg protein/mL, NADPH, read-out: mLM Clint), above 1390 µL/min/mg. The “solubility in a kinetic solubility assay” value in data set [2] is “good solubility”. For the same compound, the “Aq. Sol.” value in data set [2] came to 0.06 mg/mL. The “active efflux via P-gp” value in [3] is recorded as “high active efflux”. The “MDCK-MDR1 EER” value in data set [3] came to 7.1. Besides, the half-life at 1 μM in data set [4] (setting [10]) was above 8 h; in data set [4] (setting [11]) it was above 24 h; in data set [5] (setting [12]), above 8 h; in [5] (setting [13]), above 24 h. Moreover, the negative logarithm of the IC50 (pIC50) in [6] (setting [14]) was above 7.00; in [6] (Table 8, read-out: TG2 IC50), 7.22. Also, the apical-to-basolateral permeability (Papp A→B) at 10 μM in data set [7] worked out at 30.3 ×10⁻⁶ cm/s. Moreover, the permeability result in data set [8] is reported as “good permeability”.
